# Reference: the supplement of paper PMC11061612
# Tests used:
# [1] = tested on: D-283MED (Other Solid Carcinomas); test: Bliss excess, mean over the matrix (fraction); higher = more synergy
# Procedure, shortened: (§1)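 Cell lines in DMEM/F12 or RPMI with 10% FBS were plated in 1536-well plates, held 24 hours at 37°C, 5% CO2, then given two-drug dose matrices for 72 hours (DMSO typically 0.2%). Viability was read by CellTiter-Glo 2.0 luminescence and scaled as inhibition from 0 (vehicle wells) to 1 (blank wells). Combination Emax is the second-highest inhibition in the matrix; Bliss excess is observed combination effect minus expected EA + EB − EA·EB, EA and EB being single-agent effects.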
# [2] = tested on: D-392MG (Glioblastoma); test: as above
# Procedure, shortened: as §1
# [3] = tested on: DOK (Oral Cavity Carcinoma); test: as above
# Procedure, shortened: as §1
# [4] = tested on: EW-22 (Ewing's Sarcoma); test: as above
# Procedure, shortened: as §1
# [5] = tested on: HCC38 (Breast Carcinoma); test: as above
# Procedure, shortened: as §1
# [6] = tested on: HLE (Hepatocellular Carcinoma); test: as above
# Procedure, shortened: as §1
# [7] = tested on: HOP-92 (Non-Small Cell Lung Carcinoma); test: as above
# Procedure, shortened: as §1
# [8] = tested on: HuO9 (Osteosarcoma); test: as above
# Procedure, shortened: as §1
# [9] = tested on: MCF7 (Breast Carcinoma); test: as above
# Procedure, shortened: as §1
# [10] = tested on: P31-FUJ (Acute Myeloid Leukemia); test: as above
# Procedure, shortened: as §1
# [11] = tested on: SK-UT-1 (Other Solid Carcinomas); test: as above
# Procedure, shortened: as §1
# [12] = tested on: SW48 (Colorectal Carcinoma); test: as above
# Procedure, shortened: as §1
# [13] = tested on: SW948 (Colorectal Carcinoma); test: as above
# Procedure, shortened: as §1
# [14] = tested on: U-118-MG (Low Grade Glioma); test: as above
# Procedure, shortened: as §1
# [15] = tested on: BICR78 (Oral Cavity Carcinoma); test: combination Emax (second highest fraction inhibited in the dose matrix, 72 h); higher = more inhibition; extreme values may be limits of the assay
# Procedure, shortened: as §1
# [16] = tested on: D-392MG (Glioblastoma); test: as above
# Procedure, shortened: as §1
# [17] = tested on: HOP-92 (Non-Small Cell Lung Carcinoma); test: as above
# Procedure, shortened: as §1
# [18] = tested on: NCI-H1688 (Small Cell Lung Carcinoma); test: as above
# Procedure, shortened: as §1
# [19] = tested on: P31-FUJ (Acute Myeloid Leukemia); test: as above
# Procedure, shortened: as §1
# [20] = tested on: SK-UT-1 (Other Solid Carcinomas); test: as above
# Procedure, shortened: as §1
# 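For Bliss excess, mean over the matrix in this document: after 72 h of two-drug dosing.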
compound,measurement,setting,value
"CC1(C)CCC(CN2CCN(c3ccc(C(=O)NS(=O)(=O)c4ccc(NCC5CCOCC5)c([N+](=O)[O-])c4)c(Oc4cnc5[nH]ccc5c4)c3)CC2)=C(c2ccc(Cl)cc2)C1 [Venetoclax] + Cn1cnc2c(F)c(Nc3ccc(Br)cc3Cl)c(C(=O)NOCCO)cc21 [Selumetinib] (first compound max 1 µM, 7x7, partner max 3 µM)",Bliss excess,[1],0.009
same,Bliss excess,[2],-0.0331
same,Bliss excess,[3],-0.0258
same,Bliss excess,[4],-0.0233
same,Bliss excess,[5],-0.0322
same,Bliss excess,[6],-0.0267
same,Bliss excess,[7],-0.0338
same,Bliss excess,[8],-0.0173
same,Bliss excess,[9],-0.058
same,Bliss excess,[10],-0.0968
same,Bliss excess,[11],0.0043
same,Bliss excess,[12],0.0113
same,Bliss excess,[13],-0.0505
same,Bliss excess,[14],-0.0336
same,combination Emax,[15],0.323
same,combination Emax,[16],0.161
same,combination Emax,[17],0.148
same,combination Emax,[18],0.121
same,combination Emax,[19],0.871
same,combination Emax,[20],0.221
